Assay results: patent US20260240847A1, “COMPOUNDS WITH ANTI-TUMOR ACTIVITY AGAINST CANCER CELLS BEARING TYROSINE KINASE INHIBITOR RESISTANT EGFR MUTATIONS” (BOARD OF REGENTS, THE UNIVERSITY OF TEXAS SYSTEM, priority 2019, published 2026)

Experiments:
[1] = target: EGFR L858R T790M L718V (Homo sapiens, UniProt P00533, L718V/L858R/T790M); experiment: Ba/F3 cell viability, Cell Titer Glo; conditions: read-out: IC50 Values; Ba/F3 cells expressing EGFR L858R T790M L718V, 72 hours
Experimental: (§1) Cell viability was determined by the Cell Titer Glo assay.
(§2) Briefly, stable Ba/F3 cell lines were generated by retroviral transduction of Ba/F3 cell line for 12 hours. […] Three days after transduction, 2 μg/ml puromycin (Invitrogen) was added to the RPMI media. Cell lines were then grown in the absence of IL-3 for two weeks and cell viability was assessed every three days using the Cell Titer Glo assay (Progema).
(§3) Briefly, 2000-3000 cells per well were plated in 384-well plates (Greiner Bio-One) in technical triplicate. Cells were treated with seven different concentrations of tyrosine kinase inhibitors or vehicle alone at a final volume of 40 μL per well. After 3 days, 11 μL of Cell Titer Glo was added to each well. Plates were shaken for 15 minutes, and bioluminescence was determined using a FLUOstar OPTIMA multi-mode micro-plate reader (BMG LABTECH). Bioluminescence values were normalized to DMSO treated cells, and normalized values were plotted in GraphPad Prism using non-linear regression fit to normalized data with a variable slope.

[2] = target: EGFR L858R/T790M (Homo sapiens, UniProt P00533, L858R/T790M); experiment: Ba/F3 cell viability, Cell Titer Glo; conditions: read-out: IC50 Values; Ba/F3 cells expressing EGFR L858R/T790M, 72 hours
Experimental: as §1, §2, §3

[3] = target: EGFR L858R T790M L792H (Homo sapiens, UniProt P00533, L792H/L858R/T790M); experiment: Ba/F3 cell viability, Cell Titer Glo; conditions: read-out: IC50 Values; Ba/F3 cells expressing EGFR L858R T790M L792H, 72 hours
Experimental: as §1, §2, §3

[4] = target: WT EGFR (Homo sapiens, UniProt P00533); conditions: read-out: IC50 values; Ba/F3 cells expressing WT EGFR (+10 ng/ml EGF), 72 hours
WT EGFR, sequence (P00533 25-1210): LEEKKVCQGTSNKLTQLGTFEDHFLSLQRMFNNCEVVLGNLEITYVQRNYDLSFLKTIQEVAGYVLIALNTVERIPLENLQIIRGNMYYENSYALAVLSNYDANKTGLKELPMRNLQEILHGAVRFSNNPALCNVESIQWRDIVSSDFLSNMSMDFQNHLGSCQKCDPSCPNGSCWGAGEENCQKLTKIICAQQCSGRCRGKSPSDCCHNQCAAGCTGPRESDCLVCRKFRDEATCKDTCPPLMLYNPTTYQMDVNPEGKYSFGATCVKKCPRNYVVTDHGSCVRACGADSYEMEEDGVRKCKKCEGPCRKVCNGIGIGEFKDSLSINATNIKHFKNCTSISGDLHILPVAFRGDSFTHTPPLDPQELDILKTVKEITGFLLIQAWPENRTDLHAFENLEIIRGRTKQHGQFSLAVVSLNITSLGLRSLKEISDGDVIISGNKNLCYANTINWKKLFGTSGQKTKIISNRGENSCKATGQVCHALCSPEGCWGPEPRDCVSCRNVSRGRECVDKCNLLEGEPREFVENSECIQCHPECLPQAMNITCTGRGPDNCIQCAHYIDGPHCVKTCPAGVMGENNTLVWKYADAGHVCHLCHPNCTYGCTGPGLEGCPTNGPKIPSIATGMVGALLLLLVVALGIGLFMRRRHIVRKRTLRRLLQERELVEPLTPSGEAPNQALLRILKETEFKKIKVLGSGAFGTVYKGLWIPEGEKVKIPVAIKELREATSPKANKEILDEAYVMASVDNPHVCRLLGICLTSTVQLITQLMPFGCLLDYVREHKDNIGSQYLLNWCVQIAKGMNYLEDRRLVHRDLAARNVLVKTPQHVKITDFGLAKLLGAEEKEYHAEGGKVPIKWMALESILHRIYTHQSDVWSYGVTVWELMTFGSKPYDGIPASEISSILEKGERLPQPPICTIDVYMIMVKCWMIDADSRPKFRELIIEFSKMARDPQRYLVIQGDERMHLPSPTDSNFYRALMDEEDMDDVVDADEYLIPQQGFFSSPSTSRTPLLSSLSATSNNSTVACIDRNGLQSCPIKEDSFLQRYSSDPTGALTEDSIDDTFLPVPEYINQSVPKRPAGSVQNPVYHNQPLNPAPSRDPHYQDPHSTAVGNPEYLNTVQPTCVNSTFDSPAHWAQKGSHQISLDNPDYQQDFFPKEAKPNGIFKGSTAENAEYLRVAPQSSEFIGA
Experimental: as §1, §2, §3

[5] = target: EGFR L858R T790M V843I (Homo sapiens, UniProt P00533, L858R/T790M/V843I); experiment: Ba/F3 cell viability, Cell Titer Glo; conditions: read-out: IC50 Values; Ba/F3 cells expressing EGFR L858R T790M V843I, 72 hours
Experimental: as §1, §2, §3

[6] = target: EGFR L858R/T790M/L718Q (Homo sapiens, UniProt P00533, L718Q/L858R/T790M); experiment: Ba/F3 cell viability, Cell Titer Glo; conditions: read-out: IC50 Values; Ba/F3 cells expressing EGFR L858R/T790M/L718Q, 72 hours
Experimental: as §1, §2, §3

[7] = target: EGFR G724S T790M (Homo sapiens, UniProt P00533, G724S/T790M); experiment: Ba/F3 cell viability, Cell Titer Glo; conditions: read-out: IC50 Values; Ba/F3 cells expressing EGFR G724S T790M, 72 hours
EGFR G724S T790M, sequence (P00533 25-1210 G724S/T790M): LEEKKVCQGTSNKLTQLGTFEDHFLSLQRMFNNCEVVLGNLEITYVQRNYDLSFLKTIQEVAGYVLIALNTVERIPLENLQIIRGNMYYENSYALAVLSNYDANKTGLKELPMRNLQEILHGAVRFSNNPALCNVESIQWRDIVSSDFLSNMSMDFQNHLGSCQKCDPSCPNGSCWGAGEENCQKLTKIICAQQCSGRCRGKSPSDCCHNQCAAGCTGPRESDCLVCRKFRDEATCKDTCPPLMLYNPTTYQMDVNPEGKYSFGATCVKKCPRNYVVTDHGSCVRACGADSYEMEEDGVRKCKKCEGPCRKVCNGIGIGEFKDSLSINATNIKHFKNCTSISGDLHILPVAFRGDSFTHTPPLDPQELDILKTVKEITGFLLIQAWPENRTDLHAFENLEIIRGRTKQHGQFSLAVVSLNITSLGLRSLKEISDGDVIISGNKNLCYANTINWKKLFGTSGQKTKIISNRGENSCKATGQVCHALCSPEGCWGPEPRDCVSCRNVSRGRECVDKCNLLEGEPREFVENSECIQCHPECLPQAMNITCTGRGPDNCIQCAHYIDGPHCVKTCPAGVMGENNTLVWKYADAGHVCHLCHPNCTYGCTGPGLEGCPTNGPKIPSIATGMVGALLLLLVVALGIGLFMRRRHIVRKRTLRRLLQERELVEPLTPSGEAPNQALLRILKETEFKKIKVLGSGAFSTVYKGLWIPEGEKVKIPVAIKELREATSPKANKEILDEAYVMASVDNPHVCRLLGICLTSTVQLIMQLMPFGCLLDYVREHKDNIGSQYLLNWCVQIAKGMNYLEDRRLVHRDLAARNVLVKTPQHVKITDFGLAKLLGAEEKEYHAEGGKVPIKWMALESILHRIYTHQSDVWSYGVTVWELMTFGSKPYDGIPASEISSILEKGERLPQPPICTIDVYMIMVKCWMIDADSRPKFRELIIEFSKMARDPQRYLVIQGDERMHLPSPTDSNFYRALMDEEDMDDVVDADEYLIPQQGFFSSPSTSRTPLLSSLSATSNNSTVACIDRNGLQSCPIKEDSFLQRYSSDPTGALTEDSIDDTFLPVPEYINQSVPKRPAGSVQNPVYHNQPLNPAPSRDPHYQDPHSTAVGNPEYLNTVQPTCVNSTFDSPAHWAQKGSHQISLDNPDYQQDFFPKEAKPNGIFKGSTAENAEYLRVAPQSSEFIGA
Experimental: as §1, §2, §3

[8] = target: EGFR Ex19del/T790M/G724S (Homo sapiens, UniProt P00533, DEL746-750/G724S/T790M); experiment: Ba/F3 cell viability, Cell Titer Glo; conditions: read-out: IC50 Values; Ba/F3 cells expressing EGFR Ex19del/T790M/G724S, 72 hours
Experimental: as §1, §3

[9] = target: EGFR S768I/T790M (Homo sapiens, UniProt P00533, S768I/T790M); experiment: Ba/F3 cell viability, Cell Titer Glo; conditions: read-out: IC50 Values; Ba/F3 cells expressing EGFR S768I/T790M, 72 hours
Experimental: as §1, §3

[10] = target: EGFR Ex19delT790M L718V (Homo sapiens, UniProt P00533, DEL746-750/L718V/T790M); experiment: Ba/F3 cell viability, Cell Titer Glo; conditions: read-out: IC50 Values; Ba/F3 cells expressing EGFR Ex19delT790M L718V, 72 hours
Experimental: as §1, §2, §3

[11] = target: EGFR Ex19del/T790M/L792H (Homo sapiens, UniProt P00533, DEL746-750/L792H/T790M); experiment: Ba/F3 cell viability, Cell Titer Glo; conditions: read-out: IC50 Values; Ba/F3 cells expressing EGFR Ex19del/T790M/L792H, 72 hours
Experimental: as §1, §2, §3

[12] = target: EGFR Ex19delT790M (Homo sapiens, UniProt P00533, DEL746-750/T790M); experiment: Ba/F3 cell viability, Cell Titer Glo; conditions: read-out: IC50 Values; Ba/F3 cells expressing EGFR Ex19delT790M, 72 hours
EGFR Ex19delT790M, sequence (P00533 with tags, fused parts or gaps DEL746-750/T790M): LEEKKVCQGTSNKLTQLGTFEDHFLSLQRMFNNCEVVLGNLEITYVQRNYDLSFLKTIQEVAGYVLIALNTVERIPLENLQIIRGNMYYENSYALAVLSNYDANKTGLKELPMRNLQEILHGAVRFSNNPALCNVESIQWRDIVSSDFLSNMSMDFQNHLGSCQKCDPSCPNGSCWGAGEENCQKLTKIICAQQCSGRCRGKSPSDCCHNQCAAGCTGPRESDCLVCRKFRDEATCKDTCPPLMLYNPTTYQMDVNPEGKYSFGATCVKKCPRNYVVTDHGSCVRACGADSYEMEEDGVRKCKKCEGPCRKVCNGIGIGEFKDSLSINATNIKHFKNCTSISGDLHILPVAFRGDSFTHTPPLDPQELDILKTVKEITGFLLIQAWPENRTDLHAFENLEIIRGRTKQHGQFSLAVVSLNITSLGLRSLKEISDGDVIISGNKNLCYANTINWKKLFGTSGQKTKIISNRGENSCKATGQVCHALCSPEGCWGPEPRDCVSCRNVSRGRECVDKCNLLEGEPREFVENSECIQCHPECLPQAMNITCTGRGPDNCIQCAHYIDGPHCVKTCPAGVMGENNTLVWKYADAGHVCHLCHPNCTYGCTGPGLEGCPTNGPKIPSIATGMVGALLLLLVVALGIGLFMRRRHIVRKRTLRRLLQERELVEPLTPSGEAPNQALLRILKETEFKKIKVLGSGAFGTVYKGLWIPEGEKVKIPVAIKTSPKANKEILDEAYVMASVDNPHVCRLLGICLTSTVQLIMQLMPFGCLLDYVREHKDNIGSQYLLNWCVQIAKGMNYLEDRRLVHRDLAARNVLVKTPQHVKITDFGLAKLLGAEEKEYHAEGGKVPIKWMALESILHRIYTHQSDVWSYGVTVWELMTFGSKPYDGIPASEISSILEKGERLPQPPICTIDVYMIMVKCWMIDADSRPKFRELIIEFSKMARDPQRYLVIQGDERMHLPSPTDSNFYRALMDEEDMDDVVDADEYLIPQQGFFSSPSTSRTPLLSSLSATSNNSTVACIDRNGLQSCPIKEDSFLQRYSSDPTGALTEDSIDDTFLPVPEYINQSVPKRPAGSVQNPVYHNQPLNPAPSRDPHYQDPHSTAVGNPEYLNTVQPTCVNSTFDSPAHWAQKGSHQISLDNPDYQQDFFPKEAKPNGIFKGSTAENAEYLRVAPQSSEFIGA
Experimental: as §1, §2, §3

[13] = target: EGFR Ex19del T790M C797S (Homo sapiens, UniProt P00533, C797S/DEL746-750/T790M); experiment: Ba/F3 cell viability, Cell Titer Glo; conditions: read-out: IC50 Values; Ba/F3 cells expressing EGFR Ex19del T790M C797S, 72 hours
Experimental: as §1, §2, §3

[14] = target: EGFR L858R T790M/C797S (Homo sapiens, UniProt P00533, C797S/L858R/T790M); experiment: Ba/F3 cell viability, Cell Titer Glo; conditions: read-out: IC50 Values; Ba/F3 cells expressing EGFR L858R T790M/C797S, 72 hours
Experimental: as §1, §2, §3

[15] = target: EGFR G719A T790M (Homo sapiens, UniProt P00533, G719A/T790M); experiment: Ba/F3 cell viability, Cell Titer Glo; conditions: read-out: IC50 Values; Ba/F3 cells expressing EGFR G719A T790M, 72 hours
Experimental: as §1, §3

[16] = target: EGFR L718Q T790M (Homo sapiens, UniProt P00533, L718Q/T790M); experiment: Ba/F3 cell viability, Cell Titer Glo; conditions: read-out: IC50 Values; Ba/F3 cells expressing EGFR L718Q T790M, 72 hours
Experimental: as §1, §2, §3

[17] = target: EGFR T790M (Homo sapiens, UniProt P00533, T790M); experiment: Ba/F3 cell viability, Cell Titer Glo; conditions: read-out: IC50 Values; Ba/F3 cells expressing EGFR T790M, 72 hours
Experimental: as §1, §2, §3

EGFR L858R T790M L718V, sequence (P00533 25-1210 L718V/T790M/L858R): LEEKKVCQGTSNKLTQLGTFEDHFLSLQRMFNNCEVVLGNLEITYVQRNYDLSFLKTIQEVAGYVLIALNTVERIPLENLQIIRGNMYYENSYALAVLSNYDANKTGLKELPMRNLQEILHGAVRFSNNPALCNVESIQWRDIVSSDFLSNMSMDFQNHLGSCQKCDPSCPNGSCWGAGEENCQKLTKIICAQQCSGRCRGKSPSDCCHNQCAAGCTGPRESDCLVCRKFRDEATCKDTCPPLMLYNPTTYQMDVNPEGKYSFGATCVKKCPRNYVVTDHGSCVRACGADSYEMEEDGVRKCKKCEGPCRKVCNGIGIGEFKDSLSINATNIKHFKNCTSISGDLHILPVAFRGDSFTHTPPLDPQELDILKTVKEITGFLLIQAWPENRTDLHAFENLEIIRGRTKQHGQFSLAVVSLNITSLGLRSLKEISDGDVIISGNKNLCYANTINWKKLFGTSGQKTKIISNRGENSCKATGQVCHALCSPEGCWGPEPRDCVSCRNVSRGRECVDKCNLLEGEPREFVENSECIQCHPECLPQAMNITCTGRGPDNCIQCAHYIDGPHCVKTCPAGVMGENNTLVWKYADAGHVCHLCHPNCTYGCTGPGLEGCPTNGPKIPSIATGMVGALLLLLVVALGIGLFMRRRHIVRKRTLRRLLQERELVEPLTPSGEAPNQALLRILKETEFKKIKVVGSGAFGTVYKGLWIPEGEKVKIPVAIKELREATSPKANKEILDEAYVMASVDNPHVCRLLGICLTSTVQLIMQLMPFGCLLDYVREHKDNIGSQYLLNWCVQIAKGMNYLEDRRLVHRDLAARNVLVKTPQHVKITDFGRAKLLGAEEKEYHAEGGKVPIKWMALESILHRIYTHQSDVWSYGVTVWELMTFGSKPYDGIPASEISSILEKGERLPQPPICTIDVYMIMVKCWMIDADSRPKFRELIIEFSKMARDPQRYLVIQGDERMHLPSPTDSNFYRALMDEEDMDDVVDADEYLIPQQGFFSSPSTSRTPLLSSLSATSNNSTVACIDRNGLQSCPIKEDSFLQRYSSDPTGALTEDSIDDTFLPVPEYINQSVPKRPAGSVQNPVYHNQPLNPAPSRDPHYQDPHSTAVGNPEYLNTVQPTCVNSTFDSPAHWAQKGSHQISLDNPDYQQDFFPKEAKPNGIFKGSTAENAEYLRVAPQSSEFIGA

IC50 [4]: 1.63 µM
Compound: COc1cc(N2CCC(N)CC2)ccc1Nc1ncc(Cl)c(-c2c[nH]c3ccccc23)n1 [AZD3463]
IC50 [1]: 0.662 µM
IC50 [2]: 2.4 µM
IC50 [3]: 1.55 µM
IC50 [5]: 0.768 µM
IC50 [6]: 1.12 µM
IC50 [7]: 0.695 µM
IC50 [8]: 1.61 µM
IC50 [9]: 1.73 µM
IC50 [10]: 1.34 µM
IC50 [11]: 1.09 µM
IC50 [12]: 0.255 µM
IC50 [13]: 1.44 µM
IC50 [14]: 1.27 µM
IC50 [15]: 1.34 µM
IC50 [16]: 1.14 µM
IC50 [17]: 1.27 µM
